Patent US20110150914A1, “COMPOSITIONS AND METHODS FOR DENGUE VIRUS (DV) TREATMENT AND VACCINATION” (priority 2008, published 2011)
Read-outs that look alike come from different tables or passages of the source. Ends that are not written are not given here.

Key:
CD8^+ T cells [1] = test: IFN-γ ELISPOT, HLA A*0201 transgenic mice; assay type: cell-based; details: HLA-A*0201-restricted Jurkat cells as APC, peptide 1 μg/ml, day 7 after 10^11 GE S221
Experimental: The proteome of the DENV2 strain, S221, was inspected for the presence of peptides predicted to bind HLA A*0201 with high affinity. A total of 68 potential H-2^b binding peptides were identified. HLA A*0201 transgenic mice were infected i.v. with 10^11 GE of the DENV2 strain, S221. Seven days post-infection, splenocytes were harvested and CD8^+ T cells isolated. CD8^+ T cells (1.75×10^5) were stimulated with HLA-A*0201-restricted Jurkat cells and 1 μg/ml of individual S221-derived A*02-predicted binding peptides, and IFN-γ ELISPOT was performed. The data are expressed as the mean number of net spot-forming cells (SFC) per 10^6 CD8^+ T cells. The top 20 predicted epitopes, which includes the two positive peptides identified (indicated with an asterisk), are shown. The criteria for positivity were a stimulation index of ≧2.0, p<0.05 when compared with an irrelevant control peptide, and net SFC/10^6 cells of ≧20.
The proteome of the DENV2 strain, S221, was inspected for the presence of peptides predicted to bind HLA A*0201 with high affinity. A total of 68 potential H-2^b binding peptides were identified. HLA A*0201 transgenic mice were infected intravenously (i.v.) with 10^11 GE of the DENV2 strain, S221. […] Referring to FIG. 11, the data are expressed as the mean number of net spot-forming cells (SFC) per 10^6 CD8^+ T cells. […]

[2] = biological target: T1, purified H-2 D^b molecules (Mus musculus, UniProt P01899); test: MHC peptide-binding assay, purified H-2 D^b
T1 construct: made in house
Experimental: (§1) Briefly, 0.1-1 nM of radiolabeled peptide was co-incubated at room temperature with 1 μM to 1 nM of purified MHC in the presence of 1-3 μM human β2-microglobulin (Scripps Laboratories) and a mixture of protease inhibitors. After a 2 day incubation, binding of the radiolabeled peptide to the corresponding MHC class I molecule was determined by capturing MHC/peptide complexes on Lumitrac 600 microplates (Greiner Bio-One) coated with either the Y3 (anti-H-2 K^b) or 28-14-8S (anti-H-2 D^b, L^d and D^q) Ab, followed by measurement of bound counts per minute (cpm) using the TopCount microscintillation counter (Packard).

[3] = biological target: T2, purified H-2 K^b molecules (Mus musculus, UniProt P01901); test: MHC peptide-binding assay, purified H-2 K^b
T2 construct: made in house
Experimental: as §1, with “MHC purification and quantitative assays to measure the binding affinity of peptides to purified H-2 K^b and H-2 D^b molecules were performed as previously described (Sidney et al., Curr Protoc Immunol 18:1813 2001); Vitiello et al., J Immunol 157:5555 (1996)). Briefly,” for “Briefly,”
To confirm the MHC class I restriction of the 12 identified epitopes, measurements were performed of their MHC binding capacity using purified K^b and D^b molecules in an in vitro binding assay. Seven of the 12 epitopes bound the predicted allele with either high or intermediate affinity, as indicated by an IC50 of <50 nM or <500 nM, respectively. The five remaining epitopes also bound with biologically relevant affinities in the 500-2000 nM range.

CD8^+ T cells [4] = test: IFN-γ ELISPOT with CD8^+ T cells of DENV2-infected C57BL/6 mice; assay type: cell-based; details: PL046 or S221 infected C57BL/6 mice
[5] = system: DENV peptide-pulsed target cells; test: In vivo cytotoxicity assay; details: IFN-α/βR^−/− mice infected 7 days previously with 10^10 GE S221; 4 h after i.v. transfer; targets pulsed 0.5 μg/ml
CD8^+ T cells [6] = test: Intracellular cytokine staining (IFN-γ), splenocytes of S221-infected wild-type mice; assay type: cell-based, C57BL/6 mice; details: wild-type C57BL/6, day 7 after 10^11 GE S221, peptide 0.1 μg/ml, 5 h
Experimental: (§2) All Ab were purchased from eBioscience with the exception of anti-CD8α-PerCP and anti-CD107a-FITC which were obtained from BD Biosciences. RBC in blood were lysed using RBC lysis buffer (eBioscience). For surface staining, splenocytes or blood cells were washed, incubated with supernatant from 2.4G2-producing hybridoma cells to block Fc receptors, and labeled with anti-CD8α-PerCP, anti-CD44-APC, and anti-CD62L-PE. For intracellular cytokine staining, 10^6 splenocytes or 10^5 blood cells were plated in 96-well U-bottom plates and stimulated with individual DENV peptides (0.1 μg/ml) in the presence of brefeldin A (GolgiPlug, BD Biosciences) for 5 h. For CD107a staining, CD107a-FITC (or rat IgG2a-FITC) was added to the wells at the same time as the peptide. Cells were washed, incubated with 2.4G2 supernatant, labeled with anti-CD8α-PerCP, fixed and permeabilized using the BD Cytofix/Cytoperm Kit, and stained with anti-IFN-γ-APC and anti-TNF-α-PE. Samples were read on a FACS Caliber (BD Biosciences) and analyzed using FloJo software (Tree Star, Inc.)
To confirm that the IFN-γ response to the MHC class I-binding DENV peptides was mediated by CD8^+ T cells, intracellular cytokine staining (ICS) on CD8^+ T cells isolated from S221-infected wild-type mice was performed. Splenocytes were harvested from C57BL/6 mice 7 days after infection with 10^11 genomic equivlalents (GE) S221 and were re-stimulated in vitro with individual DENV2 peptides or an irrelevant peptide (irr) at 0.1 μg/ml in the presence of brefeldin A for 5 h. Cells were then stained for surface CD8 and intracellular IFN-γ and analyzed by flow cytometry. […] The percent of CD8^+ T cells producing IFN-γ is indicated. Referring to FIG. 2B, the figure is a summary of the DENV2-specific CD8^+ IFN-γ^+ response. The response to the irrelevant control peptide was subtracted from the responses to each DENV2 peptide. Each symbol represents one mouse and the bar represents the geometric mean. The identification of the 12 positive peptides for S221 was confirmed by the intracellular cytokine staining (ICS) (FIG. 2A), and the response to the 8 most dominant peptides was determined (FIG. 2B). The responses ranged from 0.14% recognizing NS2A 36 to 9.8% of CD8^+ T cells recognizing NS4B 99.
Splenocytes were harvested from naïve C57BL/6 mice or mice 7 days after infection with 10^11 GE of S221. The percent of CD8^+ T cells expressing CD44 and CD62L was determined in four independent studies (FIG. 3A). On day 7 after infection, splenocytes were stimulated with the eight major DENV2 peptides (individually; at 0.1 μg/ml) in the presence of brefeldin A, and stained for surface CD8 and intracellular IFN-γ. The percent of CD8^+ T cells producing IFN-γ in response to the irrelevant control peptide was subtracted from the response to each DENV2 peptide to determine the net response. The net responses to the eight major DENV2 peptides were added to determine the percent of DENV2-specific CD44^hi, CD62^lo, and CD44^hiCD62L^lo CD8^+ T cells (FIG. 3B). The data are expressed as the mean percent±SEM of 11-14 mice tested in at least four independent experiments.

CD8^+ T cells [7] = test: Intracellular cytokine staining (IFN-γ), splenocytes of S221-infected IFN-α/βR^−/− mice; assay type: cell-based; details: day 7 after 10^10 GE S221
Experimental: as §2
The S221-specific CD8^+ T cell response in the IFN-α/βR^−/− mice was studied. […]
The S221-specific CD8^+ T cell response in IFN-α/βR^−/− mice was further studied. […] Referring to FIGS. 5C, 5E and 5F, the number of splenic CD8^+ T cells in naïve (n=4) and infected (n=7) mice was measured (results described above). […] The data are expressed as the percent±SEM of seven mice tested in three independent experiments.
The initial epitope identification studies were performed in wild-type mice. […] Cells were then stained for surface CD8 and intracellular IFN-γ and analyzed by flow cytometry. […] Results are expressed as the mean±SEM of 13 wild-type and 7 IFN-α/βR^−/− mice were tested in at least three independent experiments. Referring FIGS. 8C and D, the figures show kinetics of the DENV-specific CD8^+ T cell response as determined by the study. […]

CD8^+ T cells [8] = test: TNF-α and CD107a staining after peptide re-stimulation; assay type: cell-based, wild-type or IFN-α/βR^−/− mice; details: splenocytes day 7 after S221 infection
Experimental: as §2
Because polyfunctional CD8^+ T cell responses are associated with protection (Harari et al., Immunol Rev 211:236 (2006)), the phenotype of the DENV-specific CD8^+ T cells in wild-type and IFN-α/βR^−/− mice was studied in more detail by measuring CD107a expression (CD107a, or LAMP-1, is expressed on the cell surface upon degranulation) and TNF-α production for two of the DENV-specific CD8^+ T cell populations, as described above. To collect the data, splenocytes harvested from wild-type or IFN-α/βR^−/− mice 7 days after infection with 10^11 or 10^10 GE of S221, respectively, were re-stimulated in vitro with C51-59, NS4B99-107, or an irrelevant peptide. An anti-CD107a Ab was added for the duration of the stimulation. Cells were then stained for surface CD8, intracellular IFN-γ and TNF-α, and analyzed by flow cytometry.

[9] = purified MHC, radiolabeled peptide competition, read-out: Binding affinity (IC50 nM) H2-D^b
[10] = purified MHC, radiolabeled peptide competition, read-out: Binding affinity (IC50 nM) H2-K^b

T2 sequence (P61769 21-119): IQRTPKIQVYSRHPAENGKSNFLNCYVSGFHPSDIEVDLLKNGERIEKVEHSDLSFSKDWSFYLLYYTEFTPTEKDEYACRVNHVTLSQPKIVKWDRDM
T2 sequence (P01901 22-369): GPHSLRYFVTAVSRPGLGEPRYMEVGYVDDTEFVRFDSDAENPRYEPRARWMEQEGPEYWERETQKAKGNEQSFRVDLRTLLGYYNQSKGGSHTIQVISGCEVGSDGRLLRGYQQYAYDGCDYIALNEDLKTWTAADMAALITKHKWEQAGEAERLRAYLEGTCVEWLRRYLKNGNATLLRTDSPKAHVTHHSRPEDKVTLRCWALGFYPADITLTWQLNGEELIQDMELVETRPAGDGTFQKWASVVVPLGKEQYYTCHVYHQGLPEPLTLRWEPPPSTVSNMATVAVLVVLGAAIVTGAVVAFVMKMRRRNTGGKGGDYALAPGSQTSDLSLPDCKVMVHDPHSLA
T1 sequence (P61769 21-119): as the sequence (P61769 21-119) above
T1 sequence (P01899 25-362): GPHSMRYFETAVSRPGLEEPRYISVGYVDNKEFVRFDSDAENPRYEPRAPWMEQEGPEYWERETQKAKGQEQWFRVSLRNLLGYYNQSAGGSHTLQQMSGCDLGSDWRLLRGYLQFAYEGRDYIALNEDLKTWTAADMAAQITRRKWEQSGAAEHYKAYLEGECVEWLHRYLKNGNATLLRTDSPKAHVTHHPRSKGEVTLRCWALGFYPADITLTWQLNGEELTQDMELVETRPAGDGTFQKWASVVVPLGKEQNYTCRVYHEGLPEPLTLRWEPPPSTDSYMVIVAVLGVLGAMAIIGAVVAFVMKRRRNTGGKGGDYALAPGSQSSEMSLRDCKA

## RLITVNPIV
CD8^+ T cells [1]
  IFN-γ ELISPOT positivity: positive

## RMLINRFTM [NS5237-45]
[2]; [9]
  IC50: 21 nM
[3]
  IC50: > 2000 nM
CD8^+ T cells [4]
  IFN-γ ELISPOT response (net SFC per 10^6 CD8^+ T cells), in words: highest responses
[5]
  percentage killing of peptide-pulsed target cells: 46%

## MTMRCIGI [Epitope E-2-6]
[2]
  IC50: > 2000 nM
[3]; [10]
  IC50: 1080 nM
CD8^+ T cells [4]
  IFN-γ ELISPOT response (net SFC per 10^6 CD8^+ T cells), in words: highest responses

## TAIANQATV [NS4B66-74]
[2]; [9]
  IC50: 1.3 nM
[3]
  IC50: > 2000 nM

## VAVSFVTLI [NS2A36-44]
[2]; [9]
  IC50: 997 nM
[3]; [10]
  IC50: 12 nM
CD8^+ T cells [6]
  percent of CD8^+ T cells producing IFN-γ / recognizing the peptide: 0.14%

## GMLQGRGPL [Epitope C36-44]
[2]; [9]
  IC50: 820 nM
[3]; [10]
  IC50: 1340 nM

## LAVTIMAIL [NS2A145-153]
[2]; [9]
  IC50: 644 nM
[3]
  IC50: > 2000 nM

## FSLGVLGM [NS2A8-15]
[2]; [9]
  IC50: 1800 nM
[3]
  IC50: > 2000 nM
CD8^+ T cells [4]
  IFN-γ ELISPOT response (net SFC per 10^6 CD8^+ T cells), in words: highest responses

## RALIFILL [Epitope M60-67]
[2]
  IC50: > 2000 nM
[3]; [10]
  IC50: 22 nM
CD8^+ T cells [6]
  percent of CD8^+ T cells producing IFN-γ / recognizing the peptide: 0.4%
CD8^+ T cells [7]
  % of splenic CD8^+ T cells recognizing the peptide: 11%

## VAFLRFLTI [Epitope C51-59]
[2]; [9]
  IC50: 1380 nM
[3]; [10]
  IC50: 20 nM
CD8^+ T cells [4]
  IFN-γ ELISPOT response (net SFC per 10^6 CD8^+ T cells), in words: highest responses
CD8^+ T cells [8]
  CD107a surface expression (degranulation): expressed CD107a on the surface
  TNF-α production by peptide-specific CD8^+ T cells: produced TNF-α

## VSWTMKIL [Epitope E451-458]
[2]
  IC50: > 2000 nM

## KLAEAIFKL (listed as Dengue virus)
CD8^+ T cells [1]
  IFN-γ ELISPOT positivity: positive
